According to patent publication US20230339981A1, “KRAS G12D MODULATING COMPOUNDS” (priority 2022, published 2023):

Columns and labels:
GP2D (KRAS G12D) cells = experiment: 2D cell viability assay (CellTiter-Glo); type: cell-based; conditions: 4 days
Summary of the method: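 Viability was read by CellTiter-Glo after 4 days at 37 °C of 2D culture of KRAS G12D GP2D cells (1000/well, RPMI, 10% FBS) on pre-spotted threefold compound dilutions. EC50 was fitted with a sigmoidal dose-response model as the point of half-maximal luminescence loss.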

GDP-loaded KRAS G12D = GDP-loaded KRAS G12D (Homo sapiens (Human), UniProt P01116, G12D); experiment: KRAS G12D (GDP) biochemical assay (TR-FRET probe displacement); type: binding; conditions: 2 hours
Summary of the method: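 TR-FRET probe displacement: 1:3 DMSO serial dilutions pre-incubated 30 min with GDP-bound KRAS G12D, followed by Eu-streptavidin/probe for 2 h at room temperature (Hepes pH 7.4, NaCl, MgCl2, Tween-20 buffer). IC50 defined as concentration halving TR-FRET ratio, from sigmoidal dose-response fit.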

Oc1cc(-c2nc3c4c(nc(OC[C@@]56CCCN5C[C@H](F)C6)nc4c2F)N2C[C@H]4CC[C@H](N4)[C@H]2CO3)c2c(OC(F)(F)F)c(F)ccc2c1 [Example 7, 6-fluoro-4-((5aS,6S,9R)-1-fluoro-12-(((2R,7aS)-2-fluorotetrahydro-1H-pyrrolizin-7a(5H)-yl)methoxy)-5a,6,7,8,9,10-hexahydro-5H-4-oxa-3,10a,11,13,14-pentaaza-6,9-methanonaphtho[1,8-ab]heptalen-2-yl)-5-(trifluoromethoxy)naphthalen-2-ol]
EC50 (GP2D (KRAS G12D) cells; GP2d, 96 h): 16 nM | IC50 (GDP-loaded KRAS G12D): 0.6 nM

C#Cc1c(F)ccc2cc(N)cc(-c3nc4c5c(nc(OC[C@@]67CCCN6C[C@H](F)C7)nc5c3F)N3C[C@H]5CC[C@H](N5)[C@@H]3CC[C@H]4C)c12 [Example 194, 5-ethynyl-6-fluoro-4-((4R,6aS,7S,10R)-1-fluoro-13-(((2R,7aS)-2-fluorotetrahydro-1H-pyrrolizin-7a(5H)-yl)methoxy)-4-methyl-5,6,6a,7,8,9,10,11-octahydro-4H-3,11a,12,14,15-pentaaza-7,10-methanocyclohepta[4,5]cycloocta[1,2,3-de]naphthalen-2-yl)naphthalen-2-amine]
EC50 (GP2D (KRAS G12D) cells; GP2d, 96 h): 70 nM | IC50 (GDP-loaded KRAS G12D): 31 nM

Fc1ccc2cccc(-c3nc4c5c(nc(OCC6(CN7CCC(OC(F)(F)F)CC7)CC6)nc5c3F)N3C[C@H]5CC[C@H](N5)[C@H]3CC4)c2c1OC(F)(F)F [Example 120, (5aR,6S,9R)-1-fluoro-2-(7-fluoro-8-(trifluoromethoxy)naphthalen-1-yl)-12-((1-((4-(trifluoromethoxy)piperidin-1-yl)methyl)cyclopropyl)methoxy)-4,5,5a,6,7,8,9,10-octahydro-3,10a,11,13,14-pentaaza-6,9-methanonaphtho[1,8-ab]heptalene]
EC50 (GP2D (KRAS G12D) cells; GP2d, 96 h): 1000 nM | IC50 (GDP-loaded KRAS G12D): 337 nM

CCc1c(F)ccc2cccc(-c3nc4c5c(nc(OC[C@@]67CCCN6C[C@H](F)C7)nc5c3F)N3C[C@H]5CC[C@H](N5)[C@@H]3[C@@H](C)C4)c12 [Example 131, (5S,5aS,6S,9R)-2-(8-ethyl-7-fluoronaphthalen-1-yl)-1-fluoro-12-(((2R,7aS)-2-fluorotetrahydro-1H-pyrrolizin-7a(5H)-yl)methoxy)-5-methyl-4,5,5a,6,7,8,9,10-octahydro-3,10a,11,13,14-pentaaza-6,9-methanonaphtho[1,8-ab]heptalene]
EC50 (GP2D (KRAS G12D) cells; GP2d, 96 h): 100 nM | IC50 (GDP-loaded KRAS G12D): 55.3 nM

C#Cc1c(F)ccc2cccc(-c3nc4c5c(nc(OC[C@@]67CCCN6[C@H](COc6cc(C(F)F)ncn6)CC7)nc5c3F)N3C[C@H]5CC[C@H](N5)[C@H]3CCC4)c12 [Example 205, (6aR,7S,10R)-13-(((3S,7aS)-3-(((6-(difluoromethyl)pyrimidin-4-yl)oxy)methyl)tetrahydro-1H-pyrrolizin-7a(5H)-yl)methoxy)-2-(8-ethynyl-7-fluoronaphthalen-1-yl)-1-fluoro-5,6,6a,7,8,9,10,11-octahydro-4H-3,11a,12,14,15-pentaaza-7,10-methanocyclohepta[4,5]cycloocta[1,2,3-de]naphthalene]
EC50 (GP2D (KRAS G12D) cells; GP2d, 96 h): 2.2 nM | IC50 (GDP-loaded KRAS G12D): 0.06 nM

C#Cc1c(F)c(F)cc2cccc(-c3nc4c5c(nc(OC[C@@]67CCCN6C[C@H](F)C7)nc5c3F)N3C[C@H]5CC[C@H](N5)[C@H]3CO4)c12 [Example 62, (5aS,6S,9R)-2-(8-ethynyl-6,7-difluoronaphthalen-1-yl)-1-fluoro-12-(((2R,7aS)-2-fluorotetrahydro-1H-pyrrolizin-7a(5H)-yl)methoxy)-5a,6,7,8,9,10-hexahydro-5H-4-oxa-3,10a,11,13,14-pentaaza-6,9-methanonaphtho[1,8-ab]heptalene]
EC50 (GP2D (KRAS G12D) cells; GP2d, 96 h): 79 nM | IC50 (GDP-loaded KRAS G12D): 7 nM

Oc1cc(-c2nc3c4c(nc(OC[C@@]56CCCN5C[C@H](F)C6)nc4c2F)N2C[C@H]4CC[C@H](N4)[C@H]2CC3)c2c(CC(F)(F)F)c(F)ccc2c1 [Example 50, 6-fluoro-4-((5aR,6S,9R)-1-fluoro-12-(((2R,7aS)-2-fluorotetrahydro-1H-pyrrolizin-7a(5H)-yl)methoxy)-4,5,5a,6,7,8,9,10-octahydro-3,10a,11,13,14-pentaaza-6,9-methanonaphtho[1,8-ab]heptalen-2-yl)-5-(2,2,2-trifluoroethyl)naphthalen-2-ol]
EC50 (GP2D (KRAS G12D) cells; GP2d, 96 h): 24 nM | IC50 (GDP-loaded KRAS G12D): 3 nM

Oc1cc(-c2nc3c4c(nc(OC[C@@]56CCCN5C[C@H](F)C6)nc4c2F)N2C[C@H]4CC[C@H](N4)[C@H]2CO3)c2cc(F)ccc2c1 [Example 8, 6-fluoro-4-((5aS,6S,9R)-1-fluoro-12-(((2R,7aS)-2-fluorotetrahydro-1H-pyrrolizin-7a(5H)-yl)methoxy)-5a,6,7,8,9,10-hexahydro-5H-4-oxa-3,10a,11,13,14-pentaaza-6,9-methanonaphtho[1,8-ab]heptalen-2-yl)naphthalen-2-ol]
EC50 (GP2D (KRAS G12D) cells; GP2d, 96 h): 54 nM | IC50 (GDP-loaded KRAS G12D): 2 nM

C#Cc1c(F)ccc2cc(O)cc(-c3nc4c5c(nc(OC[C@@]67CCCN6[C@H](COC(C(F)(F)F)(C(F)(F)F)C(F)(F)F)CC7)nc5c3F)N3C[C@H]5CC[C@H](N5)[C@H]3CO4)c12 [Example 55, 5-ethynyl-6-fluoro-4-((5aS,6S,9R)-1-fluoro-12-(((3S,7aS)-3-(((1,1,1,3,3,3-hexafluoro-2-(trifluoromethyl)propan-2-yl)oxy)methyl)tetrahydro-1H-pyrrolizin-7a(5H)-yl)methoxy)-5a,6,7,8,9,10-hexahydro-5H-4-oxa-3,10a,11,13,14-pentaaza-6,9-methanonaphtho[1,8-ab]heptalen-2-yl)naphthalen-2-ol]
EC50 (GP2D (KRAS G12D) cells; GP2d, 96 h): 0.8 nM | IC50 (GDP-loaded KRAS G12D): 0.5 nM

Fc1ccc2cccc(-c3nc4c5c(nc(OCC6(CN7CC[C@H](OC(F)(F)F)C7)CC6)nc5c3F)N3C[C@H]5CC[C@H](N5)[C@H]3CC4)c2c1OC(F)(F)F [Example 125, (5aR,6S,9R)-1-fluoro-2-(7-fluoro-8-(trifluoromethoxy)naphthalen-1-yl)-12-((1-(((S)-3-(trifluoromethoxy)pyrrolidin-1-yl)methyl)cyclopropyl)methoxy)-4,5,5a,6,7,8,9,10-octahydro-3,10a,11,13,14-pentaaza-6,9-methanonaphtho[1,8-ab]heptalene]
EC50 (GP2D (KRAS G12D) cells; GP2d, 96 h): 1000 nM | IC50 (GDP-loaded KRAS G12D): 417 nM

C#Cc1c(F)ccc2cc(O)cc(-c3nc4c5c(nc(OC[C@@]67CCCN6C[C@H](F)C7)nc5c3F)N3C[C@H]5CC[C@H](N5)[C@@H]3[C@H](CC)C4)c12 [Example 90, 4-((5R,5aS,6S,9R)-5-ethyl-1-fluoro-12-(((2R,7aS)-2-fluorotetrahydro-1H-pyrrolizin-7a(5H)-yl)methoxy)-4,5,5a,6,7,8,9,10-octahydro-3,10a,11,13,14-pentaaza-6,9-methanonaphtho[1,8-ab]heptalen-2-yl)-5-ethynyl-6-fluoronaphthalen-2-ol]
EC50 (GP2D (KRAS G12D) cells; GP2d, 96 h): 1000 nM | IC50 (GDP-loaded KRAS G12D): 100 nM

(6aR,7S,10R)-2-(8-ethynyl-7-fluoronaphthalen-1-yl)-1-fluoro-13-(((3S,7aS)-3-(((2-(trifluoromethyl)pyrimidin-4-yl)oxy)methyl)tetrahydro-1H-pyrrolizin-7a(5H)-yl)methoxy)-5,6,6a,7,8,9,10,11-octahydro-4H-3,11a,12,14,15-pentaaza-7,10-methanocyclohepta[4,5]cycloocta[1,2,3-de]naphthalene [Example 153]
EC50 (GP2D (KRAS G12D) cells): 4.3 nM | IC50 (GDP-loaded KRAS G12D): 0.3 nM
